In brackets after ≈: the same amount, converted by molar mass.
Tests used:
Type in all cases: functional
P388 [1] = experiment: Cytotoxicity against mouse P388 cells
P388 [2] = experiment: In vivo antitumor activity against mouse P388 cells at 46 to 185 ug/kg relative to control
P388 [3] = experiment: In vivo antitumor activity against mouse P388 cells assessed as cell life extension at 80 ug/kg

SMILES	ED50 (P388 [1])	T/C (P388 [2])	Activity (P388 [3])	EC50 (P388 [1]; Mus musculus, P388, read-out: ED50 (the source's name))
CCCC(=O)O[C@H]1C[C@H]2C[C@@H](O)CC(=O)O[C@@H]([C@@H](C)O)C[C@@H]3C/C(=C\C(=O)OC)[C@H](OC(C)=O)[C@@](O)(O3)C(C)(C)/C=C/[C@H]3C/C(=C\C(=O)OC)C[C@@H](C[C@](O)(O2)C1(C)C)O3 [BRYOSTATIN 6]	1 ×10⁻⁵ ug/ml	139%	–	–
CCCC(=O)O[C@H]1/C(=C/C(=O)OC)C[C@H]2C[C@H]([C@@H](C)O)OC(=O)C[C@H](O)C[C@@H]3C[C@H](OC(C)=O)C(C)(C)[C@](O)(C[C@@H]4C/C(=C/C(=O)OC)C[C@H](/C=C/C(C)(C)[C@]1(O)O2)O4)O3 [BRYOSTATIN 9]	–	–	40%	1.2 ng/mL (≈ 1.41 nM)

Source: ChEMBL document CHEMBL1149014, “Antineoplastic agents, 118. Isolation and structure of bryostatin 9” (1986)
